Marks after values point to notes of the source that are not given here.
Experiments:
Set-up in all cases: species or system mouse
Settings in all cases: ABL001 60 mg/kg, Ponatinib 20 mg/kg, HQP1351 20 mg/kg
[1] = system: T315I orthotopic tumor model; experiment: In vivo efficacy, T315I orthotopic tumor model
Procedure: (§1) In vivo efficacy was evaluated using the syngeneic mouse model derived from BaF3 cells with T315I and/or compound mutations. Tumor models were established by intravenously injecting tumor cells (1×10^5/mouse) into the caudal vein under sterile conditions. Mice were randomized into control and treatment groups with 8-10 mice per group and start the treatment from the second day post inoculation. The animal body weights were measured twice a week. The antitumor activity curves of test articles were plotted with the treatment time (day) on the X-axis, and corresponding survival rate on the Y-axis. A Log-rank (Mental-cox) test was employed to analyze the statistical significance of any difference between the treatment group and the control group. Prism version 7 (GraphPad Software Inc., San Diego, CA) was used for all statistical analysis and for graphic presentation.

[2] = system: F317L/T315I orthotopic tumor model; experiment: In vivo efficacy, F317L/T315I orthotopic tumor model
Procedure: as §1

[3] = system: E255V/T315I orthotopic tumor model; experiment: In vivo efficacy, E255V/T315I orthotopic tumor model
Procedure: as §1

[4] = system: Y253H/T315I orthotopic tumor model; experiment: In vivo efficacy, Y253H/T315I orthotopic tumor model
Procedure: as §1

SMILES	Median survival [1]	Survival prolongation (%) [1] [%]	Survive/Total @ D43 [1]	Median survival [2]	Survival prolongation (%) [2] [%]	Survive/Total @ 24 [2]	Median survival [3]	Survival prolongation (%) [3] [%]	Survive/Total @ D26 [3]	Median survival [4]	Survival prolongation (%) [4] [%]	Survive/Total @ 24 [4]
O=C(Nc1ccc(OC(F)(F)Cl)cc1)c1cnc(N2CC[C@@H](O)C2)c(-c2cc[nH]n2)c1 [ABL001, asciminib]	24.5****	16.67	0/10	18.0	2.86	0/8	27.0****	28.57	0/10	21.0***	23.53	0/8
Cc1ccc(C(=O)Nc2ccc(CN3CCN(C)CC3)c(C(F)(F)F)c2)cc1C#Cc1cnc2cccnn12 [Ponatinib]	27.0****	28.57	0/10	27.0****	54.29	1/8	24.5****	16.67	0/10	20.0**	17.65	0/8

Source: patent US20230404998A1, “Combination Therapies for Treating Cancer” (ASCENTAGE PHARMA (SUZHOU) CO., LTD., priority 2020, published 2023)
